From patent US12421225B2, “Heteroaromatic amide derivative and medicament containing the same” (KAKEN PHARMACEUTICAL CO., LTD., priority 2018, dated 2025)
pIC50: −log10 of the molar value.

Tests used:
human Nav1.7 = human Nav1.7 (Homo sapiens (Human), UniProt Q15858); experiment: Human Nav1.7 inhibitory activity evaluation (automated patch clamp QPatch16X, HEK293A cells stably expressing human Nav1.7 and human Navβ1); type: cell-based; conditions: human Nav1.7, automated patch clamp
In short: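 QPatch16X whole-cell recordings at room temperature from HEK293A cells stably expressing human Nav1.7 with Navβ1, CsF-based internal solution, pH 7.4 external, 0.1% DMSO. From −100 mV holding, protocol included a 15 s hold at a potential inactivating ~30-40% of channels; IC50 from inward current at the second −10 mV pulse.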

human Nav1.5 = human Nav1.5 (Homo sapiens (Human), UniProt Q14524); experiment: Human Nav1.5 inhibitory activity evaluation (automated patch clamp QPatch16X, HEK293 cells stably expressing human Nav1.5); type: cell-based; conditions: human Nav1.5, automated patch clamp
Chain of human Nav1.5 (Q14524 whole entry): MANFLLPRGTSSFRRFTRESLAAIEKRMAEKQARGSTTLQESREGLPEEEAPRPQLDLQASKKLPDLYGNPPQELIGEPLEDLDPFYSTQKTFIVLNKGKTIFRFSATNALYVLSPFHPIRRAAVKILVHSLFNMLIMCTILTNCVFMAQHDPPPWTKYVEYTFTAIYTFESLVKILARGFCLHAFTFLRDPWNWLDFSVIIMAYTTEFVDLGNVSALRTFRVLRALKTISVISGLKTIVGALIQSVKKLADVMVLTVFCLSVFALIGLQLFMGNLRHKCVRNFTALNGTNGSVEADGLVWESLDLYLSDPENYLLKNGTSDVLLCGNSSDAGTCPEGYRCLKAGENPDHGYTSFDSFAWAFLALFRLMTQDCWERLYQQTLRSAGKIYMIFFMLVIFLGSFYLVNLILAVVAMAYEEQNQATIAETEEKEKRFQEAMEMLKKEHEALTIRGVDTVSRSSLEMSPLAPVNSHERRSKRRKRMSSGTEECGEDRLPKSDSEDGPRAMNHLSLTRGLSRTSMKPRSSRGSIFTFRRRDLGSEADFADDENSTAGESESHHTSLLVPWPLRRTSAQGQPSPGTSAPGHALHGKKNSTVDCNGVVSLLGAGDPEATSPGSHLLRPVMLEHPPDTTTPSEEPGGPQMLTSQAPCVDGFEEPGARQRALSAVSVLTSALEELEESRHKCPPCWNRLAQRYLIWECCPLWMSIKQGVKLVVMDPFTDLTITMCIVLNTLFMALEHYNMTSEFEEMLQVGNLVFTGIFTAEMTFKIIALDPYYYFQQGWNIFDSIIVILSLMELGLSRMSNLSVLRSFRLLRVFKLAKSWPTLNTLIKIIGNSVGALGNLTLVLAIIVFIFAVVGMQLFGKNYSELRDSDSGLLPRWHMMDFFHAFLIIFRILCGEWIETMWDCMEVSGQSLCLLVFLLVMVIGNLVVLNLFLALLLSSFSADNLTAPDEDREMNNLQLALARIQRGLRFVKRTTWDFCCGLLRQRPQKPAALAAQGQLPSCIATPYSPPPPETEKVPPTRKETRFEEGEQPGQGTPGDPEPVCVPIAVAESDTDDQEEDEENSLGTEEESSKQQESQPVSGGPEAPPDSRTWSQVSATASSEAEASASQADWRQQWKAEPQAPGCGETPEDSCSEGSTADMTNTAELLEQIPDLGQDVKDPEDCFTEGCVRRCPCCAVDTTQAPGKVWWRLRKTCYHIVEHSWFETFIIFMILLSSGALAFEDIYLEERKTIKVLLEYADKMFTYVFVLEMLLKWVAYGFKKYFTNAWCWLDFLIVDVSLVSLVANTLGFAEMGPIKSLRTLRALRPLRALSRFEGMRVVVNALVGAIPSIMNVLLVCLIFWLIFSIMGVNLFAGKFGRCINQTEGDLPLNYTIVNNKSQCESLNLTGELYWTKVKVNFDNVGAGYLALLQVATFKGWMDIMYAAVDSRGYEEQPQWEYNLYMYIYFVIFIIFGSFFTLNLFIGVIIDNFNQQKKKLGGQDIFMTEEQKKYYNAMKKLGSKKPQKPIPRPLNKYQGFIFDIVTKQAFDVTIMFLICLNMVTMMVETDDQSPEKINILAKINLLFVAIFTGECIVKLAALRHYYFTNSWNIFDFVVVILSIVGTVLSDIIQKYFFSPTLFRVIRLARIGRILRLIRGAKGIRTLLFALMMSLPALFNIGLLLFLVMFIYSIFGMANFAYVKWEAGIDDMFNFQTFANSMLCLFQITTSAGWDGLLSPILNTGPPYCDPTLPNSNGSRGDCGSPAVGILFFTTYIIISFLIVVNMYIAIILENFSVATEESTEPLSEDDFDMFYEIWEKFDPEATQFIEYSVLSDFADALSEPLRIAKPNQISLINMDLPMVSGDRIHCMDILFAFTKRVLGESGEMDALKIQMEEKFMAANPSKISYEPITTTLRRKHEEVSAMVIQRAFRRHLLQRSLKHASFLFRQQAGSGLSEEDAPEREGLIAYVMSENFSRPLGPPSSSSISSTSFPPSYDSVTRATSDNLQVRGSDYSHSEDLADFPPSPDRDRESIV
In short: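 Whole-cell automated patch clamp at room temperature on HEK293 stably expressing human Nav1.5; holding −80 mV, 20 consecutive cardiomyocyte action-potential-like test pulses before and after compound (0.1% DMSO). Inhibition measured on inward current at 20th pulse; IC50 from concentration-response curve.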

Chain of human Nav1.7 (Q15858 whole entry): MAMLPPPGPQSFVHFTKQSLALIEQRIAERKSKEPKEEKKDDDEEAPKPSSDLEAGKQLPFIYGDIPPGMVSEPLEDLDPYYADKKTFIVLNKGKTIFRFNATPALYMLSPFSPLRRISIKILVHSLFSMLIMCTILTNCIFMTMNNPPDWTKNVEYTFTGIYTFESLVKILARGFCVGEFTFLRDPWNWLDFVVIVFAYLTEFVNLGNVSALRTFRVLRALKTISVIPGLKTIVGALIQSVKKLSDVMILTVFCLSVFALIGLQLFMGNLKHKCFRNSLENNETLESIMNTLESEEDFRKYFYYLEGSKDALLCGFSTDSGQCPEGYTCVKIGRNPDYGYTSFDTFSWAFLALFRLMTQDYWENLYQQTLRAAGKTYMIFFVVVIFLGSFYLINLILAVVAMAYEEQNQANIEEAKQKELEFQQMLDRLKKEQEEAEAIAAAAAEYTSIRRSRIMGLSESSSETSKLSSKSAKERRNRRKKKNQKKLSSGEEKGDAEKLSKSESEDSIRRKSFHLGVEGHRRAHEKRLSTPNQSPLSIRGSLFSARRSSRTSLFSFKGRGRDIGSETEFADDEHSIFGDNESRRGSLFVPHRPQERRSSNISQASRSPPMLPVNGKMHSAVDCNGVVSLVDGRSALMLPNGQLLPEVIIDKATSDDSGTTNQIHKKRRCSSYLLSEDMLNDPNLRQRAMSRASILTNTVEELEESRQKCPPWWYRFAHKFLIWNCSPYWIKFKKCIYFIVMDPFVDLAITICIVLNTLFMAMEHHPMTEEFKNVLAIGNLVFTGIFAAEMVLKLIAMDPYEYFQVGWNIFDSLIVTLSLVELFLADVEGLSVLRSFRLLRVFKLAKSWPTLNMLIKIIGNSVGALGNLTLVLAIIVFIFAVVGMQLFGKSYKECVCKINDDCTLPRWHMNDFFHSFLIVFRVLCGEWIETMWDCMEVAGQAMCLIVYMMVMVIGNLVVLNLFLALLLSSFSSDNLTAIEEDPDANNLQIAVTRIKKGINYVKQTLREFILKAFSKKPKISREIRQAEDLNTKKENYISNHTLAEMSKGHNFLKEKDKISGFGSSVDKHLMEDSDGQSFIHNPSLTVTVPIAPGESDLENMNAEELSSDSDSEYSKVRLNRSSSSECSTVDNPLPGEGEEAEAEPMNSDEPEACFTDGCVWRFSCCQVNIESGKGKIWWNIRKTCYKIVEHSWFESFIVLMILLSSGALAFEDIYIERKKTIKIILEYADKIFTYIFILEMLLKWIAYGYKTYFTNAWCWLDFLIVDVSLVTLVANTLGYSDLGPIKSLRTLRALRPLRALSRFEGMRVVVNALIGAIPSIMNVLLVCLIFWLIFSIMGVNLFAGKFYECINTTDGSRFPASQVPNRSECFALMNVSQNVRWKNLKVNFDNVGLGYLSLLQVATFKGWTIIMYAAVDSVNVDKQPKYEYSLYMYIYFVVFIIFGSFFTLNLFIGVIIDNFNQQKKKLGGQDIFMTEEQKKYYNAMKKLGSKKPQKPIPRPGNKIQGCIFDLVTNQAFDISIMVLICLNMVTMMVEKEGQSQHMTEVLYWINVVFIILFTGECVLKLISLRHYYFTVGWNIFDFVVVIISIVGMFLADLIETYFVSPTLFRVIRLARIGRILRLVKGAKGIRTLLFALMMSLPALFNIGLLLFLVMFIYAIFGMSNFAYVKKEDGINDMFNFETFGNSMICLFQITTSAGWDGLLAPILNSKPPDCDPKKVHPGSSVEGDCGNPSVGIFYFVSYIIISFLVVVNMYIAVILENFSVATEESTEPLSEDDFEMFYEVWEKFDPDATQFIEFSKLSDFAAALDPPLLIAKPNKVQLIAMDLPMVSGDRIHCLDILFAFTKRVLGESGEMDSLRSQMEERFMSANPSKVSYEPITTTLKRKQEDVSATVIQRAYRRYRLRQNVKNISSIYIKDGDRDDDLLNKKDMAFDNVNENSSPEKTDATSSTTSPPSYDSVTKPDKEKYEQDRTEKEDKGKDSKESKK
Chain of human Nav1.7 (Q07699 19-218 partner): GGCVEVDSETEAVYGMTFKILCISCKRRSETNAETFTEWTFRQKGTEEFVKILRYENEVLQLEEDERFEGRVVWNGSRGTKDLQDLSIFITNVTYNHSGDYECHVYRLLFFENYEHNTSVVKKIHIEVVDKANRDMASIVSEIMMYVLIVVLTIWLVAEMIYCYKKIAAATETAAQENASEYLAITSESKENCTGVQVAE

Structure (SMILES)	pIC50 (human Nav1.7)	pIC50 (human Nav1.5)
Cn1cc(-c2ccc3c(c2)C[C@@H](NC(=O)c2cc4n(n2)CC(CCOC(F)F)O4)CO3)cn1 (some centres unmarked) [Example 220]	> 5.00	5.52 to 6.00
O=C(N[C@H]1COc2ccc(-c3cnccn3)cc2C1)c1cc2n(n1)CC(CCOC(F)F)O2 (some centres unmarked) [Example 222]	> 6.00	≤ 5.52
O=C(N[C@H]1COc2ccc(Cl)cc2C1)c1cc2n(n1)CC(CCNCC(F)(F)F)O2 (some centres unmarked) [Example 225]	> 6.00	5.52 to 6.00
Cc1ccc2c(c1)C[C@@H](NC(=O)c1cc3n(n1)CC(CCNCC(F)(F)F)O3)CO2 (some centres unmarked) [Example 227]	> 6.00	5.52 to 6.00
O=C(N[C@H]1COc2ccc(C(F)(F)F)cc2C1)c1cc2n(n1)CC(CCNCC(F)(F)F)O2 (some centres unmarked) [Example 229]	> 6.00	5.52 to 6.00
O=C(N[C@H]1COc2ccc(COCC(F)(F)F)cc2C1)c1cc2n(n1)CC(CCNCC(F)(F)F)O2 (some centres unmarked) [Example 231]	> 6.00	≤ 5.52
O=C(N[C@H]1COc2ccc(Cl)cc2C1)c1cc2n(n1)CC(CCN1CC(F)(F)C1)O2 (some centres unmarked) [Example 233]	> 6.00	> 6.00
N#Cc1ccc2c(c1)C[C@@H](NC(=O)c1cc3n(n1)CC(CCSCC(F)(F)F)O3)CO2 (some centres unmarked) [Example 243]	> 6.00	≤ 5.52
N#Cc1ccc2c(c1)C[C@@H](NC(=O)c1cc3n(n1)CC(CCCOCC(F)(F)F)O3)CO2 (some centres unmarked) [Example 245]	> 6.00	5.52 to 6.00
N#Cc1ccc2c(c1)C[C@@H](NC(=O)c1cc3n(n1)CCCC(c1ccccc1)O3)CO2 (some centres unmarked) [Example 251]	> 6.00	≤ 5.52
N#Cc1ccc2c(c1)C[C@@H](NC(=O)c1cc3n(n1)CCC(OC(F)(F)F)CO3)CO2 (stereo partly drawn) [Example 252, N—((R)-6-cyanochroman-3-yl)-6-(trifluoromethoxy)-5,6,7,8-tetrahydropyrazolo[5,1-b][1,3]oxazepine-2-carboxamide]	> 6.00	≤ 5.52
O=C(N[C@H]1COc2ccc(C(F)(F)F)cc2C1)c1nn2c(c1-c1ccn[nH]1)OCCCC2 [Example 258, (R)-3-(1H-pyrazol-5-yl)-N-(6-(trifluoromethyl)chroman-3-yl)-5,6,7,8-tetrahydropyrazolo[5,1-b][1,3]oxazepine-2-carboxamide]	> 6.00	> 6.00
O=C(N[C@H]1COc2ccc(Cl)cc2C1)c1cc2n(n1)CCN(CCC(F)(F)F)C2 [Example 261]	> 6.00	> 6.00
O=C(N[C@H]1COc2cccc(Cl)c2C1)c1cc2n(n1)CCN(CCC(F)(F)F)C2 [Example 262]	> 5.00	≤ 5.52
O=C(N[C@H]1COc2ccc(Cl)cc2C1)c1cc2n(n1)CCN(CCC1CC1)C2 [Example 263]	> 6.00	5.52 to 6.00
O=C(N[C@H]1COc2ccc(C(F)(F)F)cc2C1)c1cc2n(n1)CCN(CCOC1CCC1)C2 [Example 265]	> 6.00	≤ 5.52
O=C(N[C@H]1COc2ccc(COCC(F)(F)F)cc2C1)c1cc2n(n1)CCN(CCOC1CCC1)C2 [Example 266]	> 6.00	≤ 5.52
O=C(N[C@H]1COc2ccc(C(F)(F)F)cc2C1)c1nn2c(c1-c1ccccn1)CN(CC(F)(F)F)CC2 [Example 267]	> 5.00	> 6.00
N#Cc1ccc2c(c1)C[C@@H](NC(=O)c1cc3n(n1)CCN(Cc1ccc(F)cc1)C3)CO2 [Example 268, (R)—N-(6-cyanochroman-3-yl)-5-(4-fluorobenzyl)-4,5,6,7-tetrahydropyrazolo[1,5-a]pyrazine-2-carboxamide]	> 6.00	≤ 5.52
CC(C)(C)OCCN1CCn2nc(C(=O)N[C@H]3COc4ccc(C(F)F)cc4C3)cc2C1 [Example 272]	> 5.00	≤ 5.52

Structure (SMILES)	pIC50 (human Nav1.7)	pIC50 (human Nav1.5)
COc1cccc(CN2CCn3nc(C(=O)N[C@H]4COc5ccc(Cl)cc5C4)cc3C2)n1 [Example 273]	> 6.00	≤ 5.52
O=C(N[C@H]1COc2ccccc2C1)c1nn2c(c1-c1ccccc1)CN(CC(F)(F)F)CC2 [Example 275]	> 6.00	5.52 to 6.00
O=C(N[C@H]1COc2ccccc2C1)c1cc2n(n1)CCN(C(=O)Cc1ccccc1)C2 [Example 276]	> 5.00	≤ 5.52
O=C(N[C@H]1COc2ccccc2C1)c1cc2n(n1)CCN(S(=O)(=O)c1cccc(C(F)(F)F)c1)C2 [Example 277]	> 5.00	≤ 5.52
N#Cc1ccc2c(c1)C[C@@H](NC(=O)c1cc3n(n1)CCN(c1ccc(F)cc1)C3)CO2 [Example 278]	> 6.00	5.52 to 6.00
O=C(N[C@H]1COc2ccc(-c3cccnc3)cc2C1)c1cc2n(n1)CCN(c1ccc(F)cc1)C2 [Example 279]	> 6.00	≤ 5.52
N#Cc1ccc(N2CCn3nc(C(=O)N[C@H]4COc5ccc(Cl)cc5C4)cc3C2)nc1 [Example 280]	> 5.00	> 6.00
CC(C)(C)N1CCn2nc(C(=O)N[C@H]3COc4ccc(Cl)cc4C3)cc2C1 [Example 281]	> 5.00	≤ 5.52
N#Cc1ccc2c(c1)C[C@@H](NC(=O)c1cc3n(n1)CCN(C1(c4ccc(F)cc4)CC1)C3)CO2 [Example 282]	> 6.00	5.52 to 6.00
O=C(N[C@H]1COc2ccc(Cl)cc2C1)c1cc2n(n1)CCN(C1(C(F)(F)F)CC1)C2 [Example 283]	> 6.00	> 6.00
CC(C)(c1ccccn1)N1CCn2nc(C(=O)N[C@H]3COc4ccc(Cl)cc4C3)cc2C1 [Example 285]	> 6.00	5.52 to 6.00
O=C(N[C@H]1COc2ccccc2C1)c1cc2n(n1)CCC(c1ccccc1)N2 (some centres unmarked) [Example 287]	> 5.00	≤ 5.52
O=C(NC1COc2cccc(-c3ccccc3)c2C1)c1cn2c(n1)CCC(C(F)(F)F)C2 (centres unmarked) [Example 291]	> 5.00	≤ 5.52
O=C(NC1COc2cccc(C(F)F)c2C1)c1cn2c(n1)CCC(C(F)(F)F)C2 (centres unmarked) [Example 292]	> 6.00	5.52 to 6.00
N#Cc1cccc2c1CC(NC(=O)c1cn3c(n1)CCC(C(F)(F)F)C3)CO2 (centres unmarked) [Example 294]	> 5.00	≤ 5.52
CCc1ccc2c(c1)CC(NC(=O)c1cn3c(n1)CCC(C(F)(F)F)C3)CO2 (centres unmarked) [Example 295]	> 6.00	≤ 5.52
O=C(c1cn2c(n1)CCC(C(F)(F)F)C2)N(Cc1ccccc1)C1COc2ccc(Br)cc2C1 (centres unmarked) [Example 298]	> 6.00	5.52 to 6.00
COc1cccc(-c2c(C(=O)N[C@H]3COc4ccccc4C3)nc3n2CCCC3)n1 [Example 303]	> 6.00	5.52 to 6.00
O=C(N[C@H]1COc2ccc(C(F)(F)F)cc2C1)c1nc2n(c1-c1ccccn1)CCCC2 [Example 305]	> 6.00	5.52 to 6.00
O=C(c1cn2c(n1)CCC(c1cccc(N3CCOCC3)n1)C2)N1CCC(c2ccccc2)C1 (centres unmarked) [Example 307]	> 5.00	5.52 to 6.00

Structure (SMILES)	pIC50 (human Nav1.7)	pIC50 (human Nav1.5)
CCNc1cccc(C2CCc3nc(C(=O)N4CCC(c5ccccc5)C4)cn3C2)n1 (centres unmarked) [Example 308]	> 5.00	5.52 to 6.00
C[C@@H]1CN(c2cccc(C3CCc4nc(C(=O)N5CCC(c6ccccc6)C5)cn4C3)n2)C[C@H](C)O1 (some centres unmarked) [Example 311]	> 5.00	≤ 5.52
O=C(c1cn2c(n1)CCC(c1cccc(OC3COC3)n1)C2)N1CCC(c2ccccc2)C1 (centres unmarked) [Example 313]	> 5.00	≤ 5.52
COc1ncc(C(F)(F)F)cc1C1CCc2nc(C(=O)N3CCC(c4ccccc4)C3)cn2C1 (centres unmarked) [Example 316]	> 5.00	5.52 to 6.00
COc1ccc(CCC2CCc3nc(C(=O)N4CCC(c5ccccc5)C4)cn3C2)cn1 (centres unmarked) [Example 317]	> 5.00	≤ 5.52
O=C(c1cn2c(n1)CCC(C1CCC(F)(F)CC1)C2)N1CCC1Cc1ccccc1 (centres unmarked) [Example 318]	> 5.00	≤ 5.52
O=C(N[C@H]1COc2ccccc2C1)c1cn2c(n1)CCC(OCCOC(F)(F)F)C2 (some centres unmarked) [Example 321]	> 5.00	≤ 5.52
O=C(NCCc1cccc(C(F)(F)F)c1)c1cn2c(n1)CNC(c1cccc(C(F)(F)F)n1)C2 (centres unmarked) [Example 324]	> 5.00	≤ 5.52
CN1Cc2nc(C(=O)NCCc3cccc(OCC(F)(F)F)c3)cn2CC1c1ccc(C(F)(F)F)cc1 (centres unmarked) [Example 325]	> 6.00	≤ 5.52
CN1Cc2nc(C(=O)NCCc3cccc(C(F)(F)F)c3)cn2CC1c1cccnc1C(F)(F)F (centres unmarked) [Example 326]	> 5.00	≤ 5.52
CN1Cc2nc(C(=O)NCCc3cccc(OCC4CCOCC4)c3)cn2CC1c1ccccc1 (centres unmarked) [Example 327]	> 5.00	≤ 5.52
CC(C)(C)CCC1Cn2cc(C(=O)N[C@H]3COc4ccccc4C3)nc2CN1 (some centres unmarked) [Example 328]	> 5.00	5.52 to 6.00
CN1Cc2nc(C(=O)NCC(F)(F)c3cccc(C(F)(F)F)c3)cn2CC1c1ccccc1 (centres unmarked) [Example 331]	> 5.00	5.52 to 6.00
CN(CCc1cccc(C(F)(F)F)c1)C(=O)c1cn2c(n1)CN(C)C(c1ccccc1)C2 (centres unmarked) [Example 332]	> 5.00	≤ 5.52
CN1Cc2nc(C(=O)NCC(F)c3cccc(C(F)(F)F)c3)cn2CC1c1cccc(C(F)(F)F)n1 (centres unmarked) [Example 333]	> 5.00	≤ 5.52
CN1Cc2nc(C(=O)NC3COc4cccc(C(F)(F)F)c4C3)cn2CC1c1ccccc1 (centres unmarked) [Example 334]	> 5.00	5.52 to 6.00
O=C(c1cn2c(n1)CNC(c1cccc(OC(F)(F)F)c1)C2)N1CC[C@H](Oc2cccc(C(F)F)n2)C1 (some centres unmarked) [Example 336]	> 5.00	5.52 to 6.00
O=C(c1cn2c(n1)CNC(c1cccc(OC(F)(F)F)c1)C2)N1CCOC(c2cccc(C(F)(F)F)c2)C1 (centres unmarked) [Example 337]	> 5.00	≤ 5.52
